{"source": "patent US8692017B2", "about": "“Carbon linked modulators of gamma-secretase” (Janssen Pharmaceutica, N.V., priority 2007, dated 2014)", "data": [{"target": "T1, γ-secretase (Homo sapiens, UniProt P49768)", "T1 construct": "endogenous in cells; host or cells: SKNBE2 cells carrying APP 695 wild type", "assay": "Screening for γ-secretase-modulating activity (Aβ42 lowering) in SKNBE2 cells carrying the APP 695-wild type", "format": "cell-based", "settings": "@ 1 uM; SKNBE2 cells carrying APP 695-wild type; read-out: Aβ % inhibition @ 1 uM", "method": "(§1) Screening was carried out using SKNBE2 cells carrying the APP 695-wild type, grown in DMEM/NUT-mix F12 (HAM) provided by Gibco (cat no. 31330-38) containing 5% Serum/Fe supplemented with 1% non-essential amino acids.\n(§2) Cells were grown to near confluency.\n(§3) The screening was performed using the assay as described in Citron et al (1997) Nature Medicine 3: 67.", "units": {"inhibition at 1 µM": "%"}, "values": [{"smiles": "CC(C)CC(C(=O)O)c1cc(C(=O)c2cc(F)cc(F)c2)cc(-c2ccc(C(F)(F)F)cc2)c1", "note": "(centres unmarked) [Compound 7, 2-[5-(3,5-Difluoro-benzoyl)-4′-trifluoromethyl-biphenyl-3-yl]-4-methyl-pentanoic acid]", "inhibition at 1 µM": 50}, {"smiles": "CC(C)CC(C(=O)O)c1cc(C(=O)c2ccc(C#N)cc2)cc(-c2ccc(C(F)(F)F)cc2)c1", "note": "(centres unmarked) [Compound 8, 2-[5-(4-Cyano-benzoyl)-4′-trifluoromethyl-biphenyl-3-yl]-4-methyl-pentanoic acid]", "inhibition at 1 µM": 25}, {"smiles": "CC(C)CC(C(=O)O)c1cc(-c2ccc(C(F)(F)F)cc2)cc(C(O)c2cc(F)cc(F)c2)c1", "note": "(centres unmarked) [Compound 9, 2-{5-[(3,5-Difluoro-phenyl)-hydroxy-methyl]-4′-trifluoromethyl-biphenyl-3-yl}-4-methyl-pentanoic acid]", "inhibition at 1 µM": 14}, {"smiles": "CC(C)CC(C(=O)O)c1cc(C#Cc2cc(F)cc(F)c2)cc(-c2ccc(C(F)(F)F)cc2)c1", "note": "(centres unmarked) [Compound 10, 2-[5-(3,5-Difluoro-phenylethynyl)-4′-trifluoromethyl-biphenyl-3-yl]-4-methyl-pentanoic acid]", "inhibition at 1 µM": 53}, {"smiles": "CC(C)CC(C(=O)O)c1cc(C#Cc2ccc(C(F)(F)F)cc2)cc(-c2ccc(C(F)(F)F)cc2)c1", "note": "(centres unmarked) [Compound 11, 4-Methyl-2-[4′-trifluoromethyl-5-(4-trifluoromethyl-phenylethynyl)-biphenyl-3-yl]-pentanoic acid]", "inhibition at 1 µM": 10}, {"smiles": "CC(C)CC(C(=O)O)c1cc(C#Cc2ccc(Cl)cc2)cc(-c2ccc(C(F)(F)F)cc2)c1", "note": "(centres unmarked) [Compound 12, 2-[5-(4-Chloro-phenylethynyl)-4′-trifluoromethyl-biphenyl-3-yl]-4-methyl-pentanoic acid]", "inhibition at 1 µM": 18}, {"smiles": "CC(C)CC(C(=O)O)c1cc(C#Cc2cc(C(F)(F)F)cc(C(F)(F)F)c2)cc(-c2ccc(C(F)(F)F)cc2)c1", "note": "(centres unmarked) [Compound 13, 2-[5-(3,5-Bis-trifluoromethyl-phenylethynyl)-4′-trifluoromethyl-biphenyl-3-yl]-4-methyl-pentanoic acid]", "inhibition at 1 µM": 28}, {"smiles": "CC(C)CC(C(=O)O)c1cc(/C=C\\c2ccc(Cl)cc2)cc(-c2ccc(C(F)(F)F)cc2)c1", "note": "(centres unmarked) [Compound 21, 2-{5-[2-(4-Chloro-phenyl)-vinyl]-4′-trifluoromethyl-biphenyl-3-yl}-4-methyl-pentanoic acid]", "inhibition at 1 µM": 34}, {"smiles": "CC(C)CC(C(=O)O)c1cc(/C=C\\c2ccc(C(F)(F)F)cc2)cc(-c2ccc(C(F)(F)F)cc2)c1", "note": "(centres unmarked) [Compound 22, 4-Methyl-2-{4′-trifluoromethyl-5-[2-(4-trifluoromethyl-phenyl)-vinyl]-biphenyl-3-yl}-pentanoic acid]", "inhibition at 1 µM": 46}, {"smiles": "CC(C)CC(C(=O)O)c1cc(/C=C/c2cc(C(F)(F)F)cc(C(F)(F)F)c2)cc(-c2ccc(C(F)(F)F)cc2)c1", "note": "(centres unmarked) [Compound 23, 2-{5-[2-(3,5-Bis-trifluoromethyl-phenyl)-vinyl]-4′-trifluoromethyl-biphenyl-3-yl}-4-methyl-pentanoic acid]", "inhibition at 1 µM": 72}]}, {"target": "T1, γ-secretase", "assay": "Screening for γ-secretase-modulating activity (Aβ42 lowering) in SKNBE2 cells carrying the APP 695-wild type", "format": "cell-based", "settings": "SKNBE2 cells carrying APP 695-wild type; read-out: Aβ 42 lowering EC50", "method": "as §1, §2, §3", "units": {"EC50": "nM"}, "values": [{"smiles": "CC(C)CC(C(=O)O)c1cc(C(=O)c2cc(Cl)cc(Cl)c2)cc(-c2ccc(C(F)(F)F)cc2)c1", "note": "(centres unmarked) [Compound 1, 2-[5-(3,5-Dichloro-benzoyl)-4′-trifluoromethyl-biphenyl-3-yl]-4-methyl-pentanoic acid]", "EC50": 710}, {"smiles": "CC(C)CC(C(=O)O)c1cc(Cc2cc(Cl)cc(Cl)c2)cc(-c2ccc(C(F)(F)F)cc2)c1", "note": "(centres unmarked) [Compound 2, 2-[5-(3,5-Dichloro-benzyl)-4′-trifluoromethyl-biphenyl-3-yl]-4-methyl-pentanoic acid]", "EC50": 570}, {"smiles": "CC(C)CC(C(=O)O)c1cc(Cc2ccc(F)cc2F)cc(-c2ccc(C(F)(F)F)cc2)c1", "note": "(centres unmarked) [Compound 3, 2-[5-(2,4-Difluoro-benzyl)-4′-trifluoromethyl-biphenyl-3-yl]-4-methyl-pentanoic acid]", "EC50": 2170}, {"smiles": "CC(C)CC(C(=O)O)c1cc(Cc2cnccc2Cl)cc(-c2ccc(C(F)(F)F)cc2)c1", "note": "(centres unmarked) [Compound 4, 2-[5-(4-Chloro-pyridin-3-ylmethyl)-4′-trifluoromethyl-biphenyl-3-yl]-4-methyl-pentanoic acid]", "EC50": 2750}, {"smiles": "CC(C)CC(C(=O)O)c1cc(Cc2cccc(C(F)(F)F)c2)cc(-c2ccc(C(F)(F)F)cc2)c1", "note": "(centres unmarked) [Compound 5, 4-Methyl-2-[4′-trifluoromethyl-5-(3-trifluoromethyl-benzyl)-biphenyl-3-yl]-pentanoic acid]", "EC50": 1130}, {"smiles": "CC(C)CC(C(=O)O)c1cc(Cc2cc(F)cc(F)c2)cc(-c2ccc(C(F)(F)F)cc2)c1", "note": "(centres unmarked) [Compound 6, 2-[5-(3,5-Difluoro-benzyl)-4′-trifluoromethyl-biphenyl-3-yl]-4-methyl-pentanoic acid]", "EC50": 740}, {"smiles": "CC(C)CC(C(=O)O)c1cc(/C=C/c2ccc(-c3ccccc3)cc2)cc(-c2ccc(C(F)(F)F)cc2)c1", "note": "(centres unmarked) [Compound 14, 2-[5-(2-Biphenyl-4-yl-vinyl)-4′-trifluoromethyl-biphenyl-3-yl]-4-methyl-pentanoic acid]", "EC50": 150}, {"smiles": "CC(C)CC(C(=O)O)c1cc(/C=C/c2ccc(C(F)(F)F)cc2)cc(-c2ccc(C(F)(F)F)cc2)c1", "note": "(centres unmarked) [Compound 15, 4-Methyl-2-{4′-trifluoromethyl-5-[2-(4-trifluoromethyl-phenyl)-vinyl]-biphenyl-3-yl}-pentanoic acid]", "EC50": 400}, {"smiles": "Cc1ccc(/C=C/c2cc(-c3ccc(C(F)(F)F)cc3)cc(C(CC(C)C)C(=O)O)c2)cc1", "note": "(centres unmarked) [Compound 16, 4-Methyl-2-[5-(2-p-tolyl-vinyl)-4′-trifluoromethyl-biphenyl-3-yl]-pentanoic acid]", "EC50": 660}, {"smiles": "CC(C)CC(C(=O)O)c1cc(/C=C/c2ccc(Cl)cc2)cc(-c2ccc(C(F)(F)F)cc2)c1", "note": "(centres unmarked) [Compound 17, 2-{5-[2-(4-Chloro-phenyl)-vinyl]-4′-trifluoromethyl-biphenyl-3-yl}-4-methyl-pentanoic acid]", "EC50": 360}, {"smiles": "CC(C)CC(C(=O)O)c1cc(/C=C/c2ccc(F)cc2)cc(-c2ccc(C(F)(F)F)cc2)c1", "note": "(centres unmarked) [Compound 18, 2-{5-[2-(4-Fluoro-phenyl)-vinyl]-4′-trifluoromethyl-biphenyl-3-yl}-4-methyl-pentanoic acid]", "EC50": 390}, {"smiles": "CC(C)CC(C(=O)O)c1cc(/C=C/c2cc(F)cc(F)c2)cc(-c2ccc(C(F)(F)F)cc2)c1", "note": "(centres unmarked) [Compound 19, 2-{5-[2-(3,5-Difluoro-phenyl)-vinyl]-4′-trifluoromethyl-biphenyl-3-yl}-4-methyl-pentanoic acid]", "EC50": 450}, {"smiles": "COc1ccc(/C=C/c2cc(-c3ccc(C(F)(F)F)cc3)cc(C(CC(C)C)C(=O)O)c2)cc1", "note": "(centres unmarked) [Compound 20, 2-{5-[2-(4-Methoxy-phenyl)-vinyl]-4′-trifluoromethyl-biphenyl-3-yl}-4-methyl-pentanoic acid]", "EC50": 610}, {"smiles": "CC(C)CC(C(=O)O)c1cc(CCc2ccc(-c3ccccc3)cc2)cc(-c2ccc(C(F)(F)F)cc2)c1", "note": "(centres unmarked) [Compound 24, 2-[5-(2-Biphenyl-4-yl-ethyl)-4′-trifluoromethyl-biphenyl-3-yl]-4-methyl-pentanoic acid]", "EC50": 210}, {"smiles": "CC(C)CC(C(=O)O)c1cc(CCc2ccc(C(F)(F)F)cc2)cc(-c2ccc(C(F)(F)F)cc2)c1", "note": "(centres unmarked) [Compound 25, 4-Methyl-2-{4′-trifluoromethyl-5-[2-(4-trifluoromethyl-phenyl)-ethyl]-biphenyl-3-yl}-pentanoic acid]", "EC50": 670}, {"smiles": "CC(C)CC(C(=O)O)c1cc(CCc2ccc(Cl)cc2)cc(-c2ccc(C(F)(F)F)cc2)c1", "note": "(centres unmarked) [Compound 26, 2-{5-[2-(4-Chloro-phenyl)-ethyl]-4′-trifluoromethyl-biphenyl-3-yl}-4-methyl-pentanoic acid]", "EC50": 740}, {"smiles": "CC(C)CC(C(=O)O)c1cc(CCc2ccc(F)cc2)cc(-c2ccc(C(F)(F)F)cc2)c1", "note": "(centres unmarked) [Compound 27, 2-{5-[2-(4-Fluoro-phenyl)-ethyl]-4′-trifluoromethyl-biphenyl-3-yl}-4-methyl-pentanoic acid]", "EC50": 580}, {"smiles": "Cc1ccc(CCc2cc(-c3ccc(C(F)(F)F)cc3)cc(C(CC(C)C)C(=O)O)c2)cc1", "note": "(centres unmarked) [Compound 28, 4-Methyl-2-[5-(2-p-tolyl-ethyl)-4′-trifluoromethyl-biphenyl-3-yl]-pentanoic acid]", "EC50": 350}, {"smiles": "CC(C)CC(C(=O)O)c1cc(CCc2cc(F)cc(F)c2)cc(-c2ccc(C(F)(F)F)cc2)c1", "note": "(centres unmarked) [Compound 29, 2-{5-[2-(3,5-Difluoro-phenyl)-ethyl]-4′-trifluoromethyl-biphenyl-3-yl}-4-methyl-pentanoic acid]", "EC50": 410}]}]}
